Assay results published in the CheMixHub viscosity set.
± gives the uncertainty stated by the source.

Assay: xn = mol fraction of the nth substance listed
Conditions: 101 kPa

CCCCCCCCNCCCCCCCC + C1CCCCC1
303.15 K
Conditions | viscosity [mPa·s]
x2 = 0.1052 | 3.382 ± 0.068
x2 = 0.2021 | 3.137 ± 0.063
x2 = 0.3028 | 2.95 ± 0.059
x2 = 0.4044 | 2.591 ± 0.052
x2 = 0.5039 | 2.306 ± 0.046
x2 = 0.6016 | 1.976 ± 0.04
x2 = 0.7009 | 1.653 ± 0.033
x2 = 0.8006 | 1.364 ± 0.027
x2 = 0.9216 | 1.055 ± 0.021

ClCc1ccccc1 + c1ccccc1
viscosity [mPa·s]
Conditions | x2 = 0.1988 | x2 = 0.3583 | x2 = 0.489 | x2 = 0.5982 | x2 = 0.6907 | x2 = 0.7701 | x2 = 0.839 | x2 = 0.8993 | x2 = 0.9526
298.15 K | 0.9856 ± 0.3 | 0.8952 ± 0.27 | 0.8251 ± 0.25 | 0.7742 ± 0.23 | 0.7152 ± 0.21 | 0.6823 ± 0.2 | 0.6598 ± 0.2 | 0.6485 ± 0.19 | 0.6042 ± 0.18
303.15 K | 0.9782 ± 0.29 | 0.8724 ± 0.26 | 0.8024 ± 0.24 | 0.7153 ± 0.21 | 0.6942 ± 0.21 | 0.6324 ± 0.19 | 0.6248 ± 0.19 | 0.5923 ± 0.18 | 0.5634 ± 0.17
308.15 K | 0.9265 ± 0.28 | 0.8258 ± 0.25 | 0.7865 ± 0.24 | 0.7026 ± 0.21 | 0.6294 ± 0.19 | 0.6058 ± 0.18 | 0.5861 ± 0.18 | 0.5592 ± 0.17 | 0.5389 ± 0.16
313.15 K | 0.9357 ± 0.28 | 0.8562 ± 0.26 | 0.7548 ± 0.23 | 0.6994 ± 0.21 | 0.6241 ± 0.19 | 0.5826 ± 0.17 | 0.5742 ± 0.17 | 0.5486 ± 0.16 | 0.5095 ± 0.15

CCCCOC(=O)c1ccccc1 + CCCCCCCC
Conditions | viscosity [mPa·s]
298.15 K, x2 = 0.0819 | 2.313 ± 0.073
298.15 K, x2 = 0.1257 | 2.139 ± 0.067
298.15 K, x2 = 0.1681 | 1.973 ± 0.062
298.15 K, x2 = 0.2263 | 1.771 ± 0.056
298.15 K, x2 = 0.2749 | 1.61 ± 0.051
298.15 K, x2 = 0.3195 | 1.476 ± 0.047
298.15 K, x2 = 0.3719 | 1.339 ± 0.042
298.15 K, x2 = 0.4121 | 1.246 ± 0.039
298.15 K, x2 = 0.473 | 1.117 ± 0.035
298.15 K, x2 = 0.5153 | 1.038 ± 0.033
298.15 K, x2 = 0.5596 | 0.971 ± 0.031
298.15 K, x2 = 0.6051 | 0.9 ± 0.029
298.15 K, x2 = 0.6559 | 0.827 ± 0.026
298.15 K, x2 = 0.7053 | 0.772 ± 0.025
298.15 K, x2 = 0.7427 | 0.729 ± 0.023
298.15 K, x2 = 0.794 | 0.674 ± 0.021
298.15 K, x2 = 0.8349 | 0.635 ± 0.02
298.15 K, x2 = 0.8859 | 0.591 ± 0.019
298.15 K, x2 = 0.9357 | 0.552 ± 0.018
308.15 K, x2 = 0.0945 | 1.866 ± 0.059
308.15 K, x2 = 0.1325 | 1.737 ± 0.055
308.15 K, x2 = 0.1853 | 1.579 ± 0.05
308.15 K, x2 = 0.2276 | 1.465 ± 0.046
308.15 K, x2 = 0.2687 | 1.364 ± 0.043
308.15 K, x2 = 0.3288 | 1.233 ± 0.039
308.15 K, x2 = 0.3769 | 1.139 ± 0.036
308.15 K, x2 = 0.4139 | 1.073 ± 0.034
308.15 K, x2 = 0.4741 | 0.975 ± 0.031
308.15 K, x2 = 0.5134 | 0.916 ± 0.029
308.15 K, x2 = 0.5651 | 0.848 ± 0.027
308.15 K, x2 = 0.6054 | 0.797 ± 0.025
308.15 K, x2 = 0.6525 | 0.743 ± 0.024
308.15 K, x2 = 0.7052 | 0.688 ± 0.022
308.15 K, x2 = 0.7478 | 0.649 ± 0.021
308.15 K, x2 = 0.7925 | 0.61 ± 0.019
308.15 K, x2 = 0.8351 | 0.577 ± 0.018
308.15 K, x2 = 0.8734 | 0.549 ± 0.018
308.15 K, x2 = 0.9291 | 0.514 ± 0.016
318.15 K, x2 = 0.0361 | 1.714 ± 0.054
318.15 K, x2 = 0.0929 | 1.554 ± 0.049
318.15 K, x2 = 0.1407 | 1.438 ± 0.045
318.15 K, x2 = 0.196 | 1.309 ± 0.041
318.15 K, x2 = 0.2419 | 1.215 ± 0.038
318.15 K, x2 = 0.2984 | 1.108 ± 0.035
318.15 K, x2 = 0.346 | 1.027 ± 0.032
318.15 K, x2 = 0.4006 | 0.943 ± 0.03
318.15 K, x2 = 0.4467 | 0.878 ± 0.028
318.15 K, x2 = 0.499 | 0.812 ± 0.026
318.15 K, x2 = 0.5446 | 0.759 ± 0.024
318.15 K, x2 = 0.5955 | 0.706 ± 0.022
318.15 K, x2 = 0.6382 | 0.665 ± 0.021
318.15 K, x2 = 0.6905 | 0.619 ± 0.02
318.15 K, x2 = 0.7358 | 0.584 ± 0.019
318.15 K, x2 = 0.7849 | 0.546 ± 0.017
318.15 K, x2 = 0.8274 | 0.518 ± 0.017
318.15 K, x2 = 0.8768 | 0.488 ± 0.016
318.15 K, x2 = 0.9193 | 0.464 ± 0.015
